# Where two headings read alike, the source gives them in different places.
# Tests used:
# [1] = system: intraocular pressure of male New Zealand rabbits; test: Normotensive intraocular pressure in rabbits after topical instillation (pneumatonometer); format: in vivo, rabbit
# Description: Male New Zealand rabbits are used to evaluate drug effects on normotensive IOP measurements. The rabbits are carefully handled so as to minimize excitement. They should be picked up by the nape of the neck, with their hindlegs supported by the other hand. After removing the rabbit from its cage, approximately 25 ul of dilute OphtheticR (0.05%) topical anesthesia is administered to each eye. An initial IOP determination is made in both eyes. Rabbits with 3 mmHg or greater difference in IOP between right and left eyes are replaced at this time.
# Immediately following the time zero (T=0) reading in both eyes, one eye of each experimental rabbit is instilled with an ophthalmic formulation of 0.1% (w/w) brimonidine tartrate onto the cornea of the randomly selected test eye. […] The other eye is given the vehicle containing no drug. The ophthalmic formulations comprise 50 ppm Purite®(stabilized chlorine dioxide), 0.5% carboxymethylcellulose, 0.6% (w/w) borate buffer (pH 7.7) and small amounts of salts (NaCl, KCl, CaCl2, MgCl2). Intraocular pressure of both treated (ipsalateral)and untreated (contralateral) eyes is measured at the indicated time intervals for seven hours. Pressure readings utilize a Model 30 Classic™ Pneumatonometer as the measuring and recording instrument. It measures intraocular pressure (IOP) non-invasively through applanation tonometry.
# [2] = system: sulprostone-induced allodynic mice; test: Sulprostone-induced allodynia mouse model, paint brush stimulation pain score
# male Sprague-Dawley rats = settings: for sedation: graded 30 minutes after administration
# Description: To test sedation, six male Sprague-Dawley rats are given various doses of a clonidine intrathecal injection. Sedation is graded 30 minutes following administration of the drug by monitoring locomotor skills as follows. Rats are placed in a dark covered chamber and a digicom analyzer (Omnitech Electronic) quantitates their exploratory behavior for a five-minute period. The machine records each time the rat interrupts an array of 32 photoelectric beams in the X and Y orientation, and quantifies the difference in behavior as compared to control animals given saline instead of clonidine.
# [3] = system: Chung model of allodynic rats; settings: for analgesia (reversal of tactile allodynia): 30 minutes after administration
# From the text: A model for chronic pain (in particular peripheral neuropathy) involves the surgical ligation of the L5 (and optionally the L6) spinal nerves on one side in experimental animals. Rats recovering from the surgery gain weight and display a level of general activity similar to that of normal rats. However, these rats develop abnormalities of the foot, wherein the hindpaw is moderately everted and the toes are held together. More importantly, the hindpaw on the side affected by the surgery appears to become sensitive to pain from low-threshold mechanical stimuli, such as that producing a faint sensation of touch in a human, within about 1 week following surgery. This sensitivity to normally non-painful touch is called “tactile allodynia” and lasts for at least two months. The response includes lifting the affected hindpaw to escape from the stimulus, licking the paw and holding it in the air for many seconds. None of these responses is normally seen in the control group.
# Rats are anesthetized before surgery. The surgical site is shaved and prepared either with betadine or novacaine. Incision is made from the thoracic vertebra X111 down toward the sacrum. Muscle tissue is separated from the spinal vertebra (left side) at the L4-S2 levels. The L6 vertebra is located and the transverse process is carefully removed with a small rongeur to expose the L4-L6 spinal nerves. The L5 and L6 spinal nerves are isolated and tightly ligated with 6-0 silk thread. The same procedure is done on the right side as a control, except no ligation of the spinal nerves is performed.
# A complete hemostasis is confirmed, then the wounds are sutured. A small amount of antibiotic ointment is applied to the incised area, and the rat is transferred to the recovery plastic cage under a regulated heat-temperature lamp. […]
# In the Chung rat model, tactile allodynia is measured prior to and 30 minutes after drug administration using von Frey hairs that are a series of fine hairs with incremental differences in stiffness. […]
compound,measurement,setting,value
COc1cc2nc(N3CCN(C(=O)c4ccco4)CC3)nc(N)c2cc1OC [prazosin],intraocular pressure of treated eye compared to untreated eye,[1]; 35 microliters 0.003% prazosin alone (FIG. 4A),"small initial drop in intraocular pressure compared to the untreated eye, followed by a gradual increase in pressure"
"CN(C)CCC=C1c2ccccc2CCc2ccccc21 [amitriplylene, amitriptylene]",reduction in the dosage necessary to achieve maximal analgesia,[2]; amitriptylene intrathecal with 30 ug/kg IP 5-methylurapadil versus with saline,approximately three
CS(=O)(=O)NC(=O)CCC/C=C\C[C@H]1C(=O)C[C@@H](O)[C@@H]1/C=C/[C@@H](O)COc1ccccc1 [sulprostone],pain score,"[2]; sulprostone 200 ng intrathecal alone, 16-point scale",12-13
Clc1cccc(Cl)c1N=C1NCCN1 [clonidine],sedation,male Sprague-Dawley rats; intrathecal dose of 3.0 μg,mildly sedating
same,sedation,male Sprague-Dawley rats; intrathecal dose of 10 μg,maximal sedation
same,separation between analgesia and sedation,"male Sprague-Dawley rats; rats, intrathecal clonidine alone",3-10 fold
same,shift of the effective analgesic dose lower versus clonidine alone,[2]; 5-methyl urapidil 30 μg/kg intraperitoneal 5 minutes before clonidine,10 fold
same,pain score,"[2]; clonidine 0.03 microgram intrathecal, prazosin given 15 minutes before",13.3±0.9
same,analgesia,[2]; clonidine 0.1 microgram intrathecal in the absence of prazosin,not analgesic
same,pain score,"[2]; clonidine 0.1 microgram intrathecal, prazosin given 15 minutes before",4.8±0.8
same,pain score,"[2]; clonidine 0.4 microgram intrathecal, prazosin given 15 minutes before",4.8±0.6
same,analgesia compared with intraperitoneal injection of the alpha 1 antagonist,[2]; clonidine (various doses) and 5-methylurapidil 1 microgram coadministered intrathecally,substantially similar
same,therapeutic window between pain and sedation,[2]; clonidine alone,3-10 fold
same,therapeutic window between pain and sedation,[2]; clonidine co-administered with alpha 1 antagonist (5-methyl urapidil 30 μg/kg i.p.),30-100 fold
same,decrease in the EC50 for clonidine analgesia versus i.t. clonidine alone,[2]; coadministration of prazosin 100 ng/kg i.p.,four
same,"analgesic activity, dose-dependent","[2]; mice, intrathecal",analgesic
same,analgesia (reversal of tactile allodynia),[3]; intrathecal dose of 0.1 μg,no analgesia
same,analgesia (reversal of tactile allodynia),[3]; intrathecal dose of 1.0 μg,maximal analgesia
same,"analgesic activity, dose-dependent","[3]; rats, intrathecal",analgesic
Brc1c(NC2=NCCN2)ccc2nccnc12 [brimonidine],intraocular pressure,[1]; 0.1% brimonidine alone (FIG. 4B),"pronounced increase in intraocular pressure within the first 30 minutes, followed by a lowering of intraocular pressure thereafter"
same,"intraocular pressure, difference from brimonidine alone",[1]; 0.1% brimonidine and 0.001% prazosin (FIG. 4C),Little difference
same,initial intraocular pressure,[1]; 0.1% brimonidine and 0.003% prazosine (FIG. 4D),only a very small increase in initial intraocular pressure
